In patent US8940742B2, “Heterocyclic compounds and uses thereof” (Infinity Pharmaceuticals, Inc., priority 2012, dated 2015) one finds IC50 data, which are given here for 28 molecules.

The target in one test is RAJI p110 δ (Homo sapiens, UniProt O00329). The experiment in a line: RAJI p110 δ cellular assay (phospho-AKT).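 Note: potency based on lowered phosphorylated AKT in RAJI cells, as a readout of PI3K-δ dependent B-cell receptor signaling.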
Another test deals with T1, Raw264.7 p110 γ (Mus musculus, UniProt Q9JHG7).
T1 construct: reduction of phospho-AKT in stimulated RAW 264.7 cells; endogenous in cells; host or cells: RAW264.7 macrophages
T1 sequence (Q9JHG7 whole entry): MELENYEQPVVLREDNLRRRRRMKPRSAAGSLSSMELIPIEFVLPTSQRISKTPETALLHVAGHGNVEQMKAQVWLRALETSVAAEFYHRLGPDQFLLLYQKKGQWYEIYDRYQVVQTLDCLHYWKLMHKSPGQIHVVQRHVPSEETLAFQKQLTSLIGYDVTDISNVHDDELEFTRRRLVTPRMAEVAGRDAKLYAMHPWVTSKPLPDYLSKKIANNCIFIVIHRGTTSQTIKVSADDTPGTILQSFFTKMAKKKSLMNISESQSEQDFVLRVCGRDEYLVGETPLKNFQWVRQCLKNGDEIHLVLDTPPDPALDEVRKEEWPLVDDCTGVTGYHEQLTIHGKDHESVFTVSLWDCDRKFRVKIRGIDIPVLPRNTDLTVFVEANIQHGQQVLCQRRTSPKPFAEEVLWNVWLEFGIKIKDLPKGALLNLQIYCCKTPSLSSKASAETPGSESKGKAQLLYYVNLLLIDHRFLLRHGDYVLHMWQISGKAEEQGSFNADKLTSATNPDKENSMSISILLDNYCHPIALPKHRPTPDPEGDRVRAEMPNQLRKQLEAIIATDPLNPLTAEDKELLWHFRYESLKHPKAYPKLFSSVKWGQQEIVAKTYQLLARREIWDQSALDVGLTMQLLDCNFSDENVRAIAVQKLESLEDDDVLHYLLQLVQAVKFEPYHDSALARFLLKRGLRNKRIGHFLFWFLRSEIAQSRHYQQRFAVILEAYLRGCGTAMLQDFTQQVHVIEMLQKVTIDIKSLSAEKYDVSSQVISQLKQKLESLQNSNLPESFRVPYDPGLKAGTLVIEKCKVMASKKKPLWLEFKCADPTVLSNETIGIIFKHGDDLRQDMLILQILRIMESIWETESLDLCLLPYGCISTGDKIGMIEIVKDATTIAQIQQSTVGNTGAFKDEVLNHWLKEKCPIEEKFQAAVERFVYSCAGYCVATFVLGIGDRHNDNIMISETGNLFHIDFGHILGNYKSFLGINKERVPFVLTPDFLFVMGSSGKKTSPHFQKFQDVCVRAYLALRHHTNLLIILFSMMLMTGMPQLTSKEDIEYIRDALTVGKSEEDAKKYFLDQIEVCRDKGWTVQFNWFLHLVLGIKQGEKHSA
The experiment in a line: Raw264.7 p110 γ cellular assay (phospho-AKT). In kind it is cell-based. The conditions noted are these: serum-starved RAW264.7 cells stimulated with C5a. From the text: (b) PI3K-γ Selective Assay
Briefly, serum-starved PAW264.7 cells are stimulated with a known GPCR agonist C5a. […] Cells can be treated with test compounds prior to, simultaneously with, or subsequent to the stimulation by C5a. RAW 264.7 cells respond to the complement component fragment C5a through activation of the C5a receptor, and the C5a receptor activates macrophages and induces cell migration.

A further test has as its target T2, PI3K β (Homo sapiens, UniProt P42338).
T2 construct: purchased Millipore
Briefly: PI3-Kinase Promega ADP-Glo Max assay. The conditions noted are these: 40 nM kinase, 3 mM ATP, 500 uM diC8-PtdInsP. In kind it is biochemical. The procedure:
(§1) Promega ADP-Glo Max assay kit (Cat. No. V7002) was utilized to determine IC50 values for α, β, δ and γ isoforms of human Class I PI3 kinases (Millipore). Samples of kinase (20 nM α or δ, 40 nM β or γ isoform) were incubated with compound for 15 minutes at room temperature in reaction buffer (15 mM HEPES pH 7.4, 20 mM NaCl, 1 mM EGTA, 0.02% Tween 20, 10 mM MgCl2, 0.2 mg/mL bovine-γ-globulins) followed by addition of ATP/diC8-PtdInsP mixture to give final concentrations of 3 mM ATP and 500 uM diC8-PtdInsP. Reactions were incubated at room temperature for 2 hours followed by addition of 25 uL of stop solution. After a 40-minute incubation at room temperature, 50 uL of Promega detection mix was added followed by incubation for 1 hour at room temperature. Plates were then read on Envision plate reader in luminescence mode. Data was converted to % inhibition using the following equation below:
(§2) [formula] where S is the sample luminescence, Pos is a positive control without added PI3K, Neg is the negative control without added compound. Data was then plotted as % inhibition vs compound concentration. Data fit to 4 parameter logistic equation to determine IC50 values: […]
(§3) Certain compounds provided herein were tested in PI3-Kinase Promega Assay using procedures as described above to determine IC50 values for α, β, δ and/or γ isoforms.

A further test deals with T3, PI3K δ (Homo sapiens, UniProt O00329).
T3 construct: purchased Millipore
T3 sequence (O00329 whole entry): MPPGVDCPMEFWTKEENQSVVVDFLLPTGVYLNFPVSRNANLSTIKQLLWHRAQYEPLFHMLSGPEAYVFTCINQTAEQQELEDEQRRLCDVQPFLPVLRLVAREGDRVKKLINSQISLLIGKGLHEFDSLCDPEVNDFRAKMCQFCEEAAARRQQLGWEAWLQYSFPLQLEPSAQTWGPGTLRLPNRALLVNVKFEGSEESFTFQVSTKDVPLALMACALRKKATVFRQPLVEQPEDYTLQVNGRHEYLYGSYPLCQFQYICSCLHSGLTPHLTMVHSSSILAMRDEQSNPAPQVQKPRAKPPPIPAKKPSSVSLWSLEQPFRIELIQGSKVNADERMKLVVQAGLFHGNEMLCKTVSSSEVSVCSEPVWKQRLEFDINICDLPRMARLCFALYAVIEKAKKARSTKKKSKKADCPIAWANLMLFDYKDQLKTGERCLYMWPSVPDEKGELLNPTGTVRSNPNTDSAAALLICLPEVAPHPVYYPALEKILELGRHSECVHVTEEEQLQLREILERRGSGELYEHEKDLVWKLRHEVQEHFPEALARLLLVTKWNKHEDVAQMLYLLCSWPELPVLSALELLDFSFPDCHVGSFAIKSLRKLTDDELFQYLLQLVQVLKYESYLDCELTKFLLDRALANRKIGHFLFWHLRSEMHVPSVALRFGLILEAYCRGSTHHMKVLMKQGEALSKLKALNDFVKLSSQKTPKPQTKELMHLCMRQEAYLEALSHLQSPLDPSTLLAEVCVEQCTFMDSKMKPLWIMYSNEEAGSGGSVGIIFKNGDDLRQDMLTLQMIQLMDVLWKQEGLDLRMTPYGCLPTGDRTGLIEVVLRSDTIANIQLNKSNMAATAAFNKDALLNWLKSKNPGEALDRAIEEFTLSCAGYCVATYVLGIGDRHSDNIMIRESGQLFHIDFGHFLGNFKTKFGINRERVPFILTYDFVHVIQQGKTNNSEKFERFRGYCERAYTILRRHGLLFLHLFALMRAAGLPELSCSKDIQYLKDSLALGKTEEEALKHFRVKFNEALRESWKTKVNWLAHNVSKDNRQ
T3 sequence (P27986 whole entry partner): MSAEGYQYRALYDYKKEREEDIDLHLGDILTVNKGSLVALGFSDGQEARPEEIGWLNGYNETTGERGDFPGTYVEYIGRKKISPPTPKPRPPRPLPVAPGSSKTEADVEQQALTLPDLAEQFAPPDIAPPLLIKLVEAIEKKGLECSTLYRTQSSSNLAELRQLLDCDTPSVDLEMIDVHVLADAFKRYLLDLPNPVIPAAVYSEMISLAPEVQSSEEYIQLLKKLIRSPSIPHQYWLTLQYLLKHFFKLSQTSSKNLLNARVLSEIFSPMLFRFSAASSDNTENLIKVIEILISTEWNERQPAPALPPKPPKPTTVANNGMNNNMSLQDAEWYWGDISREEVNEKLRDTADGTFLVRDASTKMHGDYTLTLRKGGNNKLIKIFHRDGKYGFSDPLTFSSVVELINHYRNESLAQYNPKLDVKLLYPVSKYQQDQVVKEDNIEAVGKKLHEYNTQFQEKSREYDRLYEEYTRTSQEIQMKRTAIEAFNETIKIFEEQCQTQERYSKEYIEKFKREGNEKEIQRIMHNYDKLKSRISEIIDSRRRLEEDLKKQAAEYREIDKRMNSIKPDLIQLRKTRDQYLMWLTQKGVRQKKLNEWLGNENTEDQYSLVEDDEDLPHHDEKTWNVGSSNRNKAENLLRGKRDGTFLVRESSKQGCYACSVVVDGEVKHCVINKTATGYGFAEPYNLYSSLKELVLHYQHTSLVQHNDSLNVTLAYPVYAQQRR
Briefly: PI3-Kinase Promega ADP-Glo Max assay. In kind it is biochemical. The following applies: 20 nM kinase, 3 mM ATP, 500 uM diC8-PtdInsP. The method, then:
as §1, §2, §3
(In general: In ADP-Glo the light output rises with the ADP produced.)

The next test concerns the target T4, PI3K α (Homo sapiens, UniProt P42336).
T4 construct: purchased Millipore
Briefly: PI3-Kinase Promega ADP-Glo Max assay. The class given is biochemical. The following applies: 20 nM kinase, 3 mM ATP, 500 uM diC8-PtdInsP. The method, then: as §1, §2, §3

A further test addresses T5, PI3K γ (Homo sapiens, UniProt P48736).
T5 construct: purchased Millipore
Briefly: PI3-Kinase Promega ADP-Glo Max assay. In kind it is biochemical. The conditions noted are these: 40 nM kinase, 3 mM ATP, 500 uM diC8-PtdInsP. The method, then: Promega ADP-Glo Max assay kit (Cat. No. V7002) was utilized to determine IC50 values for α, β, δ and γ isoforms of human Class I PI3 kinases (Millipore). […] Reactions were incubated at room temperature for 2 hours followed by addition of 25 uL of stop solution. After a 40-minute incubation at room temperature, 50 uL of Promega detection mix was added followed by incubation for 1 hour at room temperature. Plates were then read on Envision plate reader in luminescence mode. Data was converted to % inhibition using the following equation below:
[formula] where S is the sample luminescence, Pos is a positive control without added PI3K, Neg is the negative control without added compound. Data was then plotted as % inhibition vs compound concentration.
as §3

T2 sequence (P42338 whole entry): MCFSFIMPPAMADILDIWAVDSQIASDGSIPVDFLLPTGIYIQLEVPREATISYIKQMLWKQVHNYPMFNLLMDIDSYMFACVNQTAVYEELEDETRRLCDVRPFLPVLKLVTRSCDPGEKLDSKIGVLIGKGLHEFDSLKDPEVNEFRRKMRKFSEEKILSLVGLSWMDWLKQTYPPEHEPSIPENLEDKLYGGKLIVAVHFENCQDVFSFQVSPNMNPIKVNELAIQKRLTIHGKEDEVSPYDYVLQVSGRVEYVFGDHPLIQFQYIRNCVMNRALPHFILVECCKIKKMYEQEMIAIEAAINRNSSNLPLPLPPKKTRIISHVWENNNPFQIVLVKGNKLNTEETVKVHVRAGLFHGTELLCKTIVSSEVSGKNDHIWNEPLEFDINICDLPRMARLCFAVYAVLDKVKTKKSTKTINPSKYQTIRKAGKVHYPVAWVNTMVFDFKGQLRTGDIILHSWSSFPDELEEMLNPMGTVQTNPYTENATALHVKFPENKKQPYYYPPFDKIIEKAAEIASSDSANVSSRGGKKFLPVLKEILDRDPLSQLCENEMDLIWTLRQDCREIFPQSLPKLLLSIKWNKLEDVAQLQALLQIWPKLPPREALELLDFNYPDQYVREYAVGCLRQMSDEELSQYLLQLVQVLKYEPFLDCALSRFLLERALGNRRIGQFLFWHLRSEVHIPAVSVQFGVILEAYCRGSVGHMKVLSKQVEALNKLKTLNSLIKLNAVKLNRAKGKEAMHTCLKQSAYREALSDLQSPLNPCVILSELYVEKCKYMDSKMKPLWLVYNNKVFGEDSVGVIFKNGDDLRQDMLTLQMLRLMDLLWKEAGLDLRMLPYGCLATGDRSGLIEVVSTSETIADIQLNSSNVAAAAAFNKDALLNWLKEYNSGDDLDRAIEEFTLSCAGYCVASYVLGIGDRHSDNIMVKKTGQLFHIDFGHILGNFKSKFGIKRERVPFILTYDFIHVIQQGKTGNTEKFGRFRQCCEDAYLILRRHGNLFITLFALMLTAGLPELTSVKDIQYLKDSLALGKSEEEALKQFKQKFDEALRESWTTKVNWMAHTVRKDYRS
T2 sequence (P27986 whole entry partner): as the sequence (P27986 whole entry partner) above
Chain of RAJI p110 δ (O00329 whole entry): as the sequence (O00329 whole entry) above
Chain of RAJI p110 δ (P27986 whole entry partner): as the sequence (P27986 whole entry partner) above
From the text for RAJI p110 δ: (a) PI3K-δ Selective Assay
Reduction of phospho-AKT is indicative of compounds that may inhibit B-cell proliferation and function in certain diseases.

As usually defined, the IC50 is the concentration at which inhibition is half-maximal. With `CC(C)Oc1cc(-c2cccc3nc([C@H](C)NC(=O)c4c(N)nn5cccnc45)n(-c4ccccc4)c(=O)c23)ccn1` [Compound 145], the half-inhibitory concentration (IC50) against RAJI p110 δ was below 0.1 µM; against Raw264.7 p110 γ, below 0.1 µM; at PI3K β it was 1 to 10 µM; against PI3K δ, 1 to 10 µM; against PI3K α, above 10 µM; against PI3K γ, 1 to 10 µM.

Turning to `C[C@H](NC(=O)c1c(N)nn2cccnc12)c1cc2ccccc2c(=O)n1-c1ccccc1` [Compound 133], the half-inhibitory concentration (IC50) on RAJI p110 δ was 0.1 to 1 µM; on Raw264.7 p110 γ it was below 0.1 µM; against PI3K β, 1 to 10 µM; at PI3K δ, 1 to 10 µM; at PI3K α it was above 10 µM; on PI3K γ it was 0.1 to 1 µM.

With `COc1cc(-c2cccc3cc([C@H](C)NC(=O)c4c(N)nn5cccnc45)n(C4CC4)c(=O)c23)ccn1` [Compound 150], the IC50 on RAJI p110 δ is 0.1 to 1 µM; against Raw264.7 p110 γ, below 0.1 µM; on PI3K β, 1 to 10 µM; at PI3K δ it was 1 to 10 µM; against PI3K α it was 1 to 10 µM; at PI3K γ, 1 to 10 µM.

For `C[C@H](NC(=O)c1c(N)nn2cccnc12)c1cc2cccc(NCC(F)(F)F)c2c(=O)n1-c1ccccc1` [Compound 267], the IC50 on RAJI p110 δ was 0.1 to 1 µM; against Raw264.7 p110 γ, 0.1 to 1 µM; on PI3K β, above 10 µM; against PI3K δ, above 10 µM; on PI3K α, above 10 µM; at PI3K γ, 1 to 10 µM.

For the molecule `C[C@H](NC(=O)c1nc(-c2cccc(NS(C)(=O)=O)c2)c(N)nc1N)c1cc2cccc(Cl)c2c(=O)n1-c1ccccc1` [Compound 169], the IC50 on RAJI p110 δ is below 0.1 µM; against Raw264.7 p110 γ, below 0.1 µM; on PI3K β, below 0.1 µM; against PI3K δ, 0.1 to 1 µM; against PI3K α, below 0.1 µM; against PI3K γ, below 0.1 µM.

With `C[C@H](NC(=O)c1c(N)nn2cccnc12)c1cc2cccc(-c3cnn(C)c3)c2c(=O)n1-c1ccccc1` [Compound 222], the half-maximal inhibitory concentration (IC50) was below 0.1 µM against RAJI p110 δ; below 0.1 µM at Raw264.7 p110 γ; above 10 µM on PI3K β; 1 to 10 µM on PI3K δ; above 10 µM on PI3K α; 0.1 to 1 µM at PI3K γ.

At Raw264.7 p110 γ, `C[C@H](NC(=O)c1cccnc1N)c1cc2cccc(Cl)c2c(=O)n1-c1ccccc1` [Compound 3] returned a half-inhibitory concentration (IC50) of 1 to 10 µM.

At Raw264.7 p110 γ, `C[C@H](NC(=O)c1nc(Br)cnc1N)c1cc2cccc(Cl)c2c(=O)n1-c1ccccc1` [Compound 15] came in with a concentration for half-maximal inhibition (IC50) above 10 µM.

As for `C[C@H](NC(=O)c1nc(-c2cccc(S(C)(=O)=O)c2)cnc1N)c1cc2cccc(Cl)c2c(=O)n1-c1ccccc1` [Compound 84], the IC50 against RAJI p110 δ is 0.1 to 1 µM; on Raw264.7 p110 γ, below 0.1 µM; on PI3K β it was 1 to 10 µM; against PI3K δ it was 1 to 10 µM; at PI3K γ, 0.1 to 1 µM.

Consider `C[C@H](NC(=O)c1cnc2cccnn12)c1cc2cccc(Cl)c2c(=O)n1-c1ccccc1` [Compound 13], for which the IC50 was 0.1 to 1 µM against RAJI p110 δ; 0.1 to 1 µM against Raw264.7 p110 γ; 1 to 10 µM on PI3K β; 0.1 to 1 µM at PI3K δ; 1 to 10 µM at PI3K γ.

With `C[C@H](NC(=O)c1c(N)nn2cccnc12)c1cc2cccc(Cl)c2c(=O)n1-c1ccccc1` [Compound 70], the concentration for half-maximal inhibition (IC50) on RAJI p110 δ was below 0.1 µM; at PI3K β, 0.1 to 1 µM; against PI3K δ it was 0.1 to 1 µM; on PI3K α, 1 to 10 µM.

In the case of `C[C@H](NC(=O)c1cncc2cccnc12)c1cc2cccc(C(F)(F)F)c2c(=O)n1-c1ccccc1` [Compound 67], the IC50 against RAJI p110 δ and on Raw264.7 p110 γ was below 0.1 µM each time.

For the molecule `Nc1nccnc1C(=O)N1CCC[C@H]1c1cc2cccc(Cl)c2c(=O)n1-c1ccccc1` [Compound 148], the IC50 was above 10 µM against PI3K β, 1 to 10 µM at PI3K δ, above 10 µM against PI3K α and above 10 µM against PI3K γ.

Turning to `C[C@H](NC(=O)c1c(N)nn2cccnc12)c1cc2cccc(Cl)c2c(=O)n1CCNCCO` [Compound 243], the half-maximal inhibitory concentration (IC50) at PI3K β was below 0.1 µM; against PI3K δ, 0.1 to 1 µM; against PI3K α, 1 to 10 µM; on PI3K γ, 1 to 10 µM.

At Raw264.7 p110 γ, `C[C@H](NC(=O)c1cnccn1)c1cc2cccc(Cl)c2c(=O)n1-c1ccccc1` [Compound 14] returned a 50% inhibitory concentration (IC50) above 10 µM.

On to `Nc1nn2cccnc2c1C(=O)NCc1cc2cccc(Cl)c2c(=O)n1-c1ccccc1` [Compound 274], for which the IC50 at PI3K β, at PI3K δ, on PI3K α and against PI3K γ was above 10 µM throughout.

For `C[C@H](NC(=O)c1c(N)oc2cccnc12)c1cc2cccc(Cl)c2c(=O)n1-c1ccccc1` [Compound 298], the half-maximal inhibitory concentration (IC50) was 1 to 10 µM against PI3K β, 1 to 10 µM against PI3K δ, above 10 µM at PI3K α and 1 to 10 µM on PI3K γ.

As to `COc1cc(-c2csc3cc([C@H](C)NC(=O)c4c(N)nn5cccnc45)n(-c4ccccc4)c(=O)c23)ccn1` [Compound 213], the half-maximal inhibitory concentration (IC50) on PI3K β, against PI3K δ, against PI3K α and at PI3K γ was above 10 µM throughout.

For `COc1ccc(-c2cnc(N)c(C(=O)N[C@@H](C)c3cc4cccc(Cl)c4c(=O)n3-c3ccccc3)n2)cc1F` [Compound 94], the half-maximal inhibitory concentration (IC50) on PI3K β was above 10 µM; at PI3K δ, 1 to 10 µM; on PI3K α, above 10 µM; at PI3K γ, 1 to 10 µM.

Regarding `COC(=O)c1ncsc1-c1cccc2cc([C@H](C)NC(=O)c3c(N)nn4cccnc34)n(-c3ccccc3)c(=O)c12` [Compound 248], the IC50 is above 10 µM at PI3K β, above 10 µM at PI3K δ, above 10 µM on PI3K α and 1 to 10 µM against PI3K γ.

With `C[C@H](NC(=O)c1c(N)nn2cccnc12)c1nn2ccc(Cl)c2c(=O)n1-c1ccccc1` [Compound 286], the IC50 against PI3K β, on PI3K δ, against PI3K α and against PI3K γ was above 10 µM each time.

With `COc1cc(-c2cccc3cc([C@H](C)NC(=O)c4c(N)nn5cccnc45)n(C4CCCCC4)c(=O)c23)ccn1` [Compound 233], the IC50 against PI3K β was above 10 µM; on PI3K δ, above 10 µM; against PI3K α, above 10 µM; on PI3K γ, 1 to 10 µM.

Consider `CC(C)Nc1cccc2cc([C@H](C)NC(=O)c3c(N)nn4cccnc34)n(-c3ccccc3)c(=O)c12` [Compound 268], for which the half-inhibitory concentration (IC50) against PI3K β, against PI3K δ, against PI3K α and against PI3K γ was above 10 µM in each case.

`C[C@H](NC(=O)c1c(N)nn2cccnc12)c1cc2cccc(NC3CCCCC3)c2c(=O)n1-c1ccccc1` [Compound 265]: the IC50 against PI3K β, against PI3K δ, against PI3K α and against PI3K γ was above 10 µM each time.

With `C[C@H](NC(=O)c1csc2cccnc12)c1cc2cccc(Cl)c2c(=O)n1-c1ccccc1` [Compound 68], the half-inhibitory concentration (IC50) against RAJI p110 δ and on Raw264.7 p110 γ was 1 to 10 µM throughout.

With `C[C@H](NC(=O)c1nc(-c2cccc(S(=O)(=O)N3CCOCC3)c2)cnc1N)c1cc2cccc(Cl)c2c(=O)n1-c1ccccc1` [Compound 95], the 50% inhibitory concentration (IC50) against PI3K β, at PI3K δ, against PI3K α and at PI3K γ was above 10 µM each time.

Take `C[C@H](NC(=O)c1nccnc1N)c1nc2cccc(Cl)c2c(=O)n1-c1ccccc1` [Compound 289]: the 50% inhibitory concentration (IC50) against PI3K β was 1 to 10 µM; against PI3K δ it was below 0.1 µM; at PI3K α it was above 10 µM; against PI3K γ, 0.1 to 1 µM.

On to `C[C@H](NC(=O)c1c(N)nn2cccnc12)c1cc2cccc(/C=C/c3ccccc3)c2c(=O)n1-c1ccccc1` [Compound 199], for which the IC50 on PI3K β, at PI3K δ, against PI3K α and on PI3K γ was above 10 µM throughout.
